From EP2662361A1, “Pyrazol indanyl carboxamides” (Bayer CropScience AG, priority 2012, dated 2013)

Experiment: physchem
Type: physicochemical
Conditions: reversed-phase c18 hplc, pH 2.7
Experimental: The logP values were measured in accordance with EEC Directive 79/831 Annex V.A8 by HPLC (High Performance Liquid Chromatography) using reversed-phase columns (C 18) by the following methods: • [a] The LC-MS determination in the acidic range is effected at pH 2.7 with 0.1% aqueous formic acid and acetonitrile (contains 0.1 % formic acid) as eluents; linear gradient from 10 % acetonitrile to 95 % acetonitrile.

chromatographic logP | SMILES
3.77 | CC(C)C1Cc2cccc(NC(=O)c3cn(C)nc3C(F)F)c2C1 (stereo not drawn) [compound 3]
1.42 | Cn1cc(C(=O)Nc2cccc3c2CC(O)C3)c(C(F)F)n1 (stereo not drawn) [compound 1]
2.71 | CC(C)OC1Cc2cccc(NC(=O)c3cn(C)nc3C(F)F)c2C1 (stereo not drawn) [compound 2]
3.53 | CC1c2cccc(NC(=O)c3cn(C)nc3C(F)F)c2CC1(C)C (stereo not drawn) [compound 5]
3.55 | CC1Cc2c(NC(=O)c3cn(C)nc3C(F)F)cccc2C1(C)C (stereo not drawn) [compound 6]
4.14 | CC(C)CC1Cc2cccc(NC(=O)c3cn(C)nc3C(F)F)c2C1 (stereo not drawn) [compound 4]
